Patent US9518018B2, “3-alkoxy, thioalkyl and amino-4-amino-6-(substituted)picolinates and their use as herbicides” (Dow AgroSciences LLC, priority 2011, dated 2016)

Legend:
[1] = system: ZEAMX: corn (Zea mays); test: Post-Emergent Test I herbicidal activity; format: in vivo; conditions: Zea mays, post-emergence, 336 h, Table 3, 140 g ai/ha, read-out: Visual Growth Reduction (%)-14 Days after Application ZEAMX
Method in brief: (§1)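 Visual injury ratings (0 = none, 100 = complete kill) taken 14 d after treatment underlie these values, with GR20, GR50 and GR80 obtained by probit analysis. Plants were treated post-emergence at the first or second true-leaf stage by overhead spray at 187 L/ha.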

[2] = system: ORYSA: rice (Oryza sativa); test: Post-Emergent Test I herbicidal activity; format: in vivo; conditions: post-emergence, 336 h, Table 3, 140 g ai/ha, read-out: Visual Growth Reduction (%)-14 Days after Application ORYSA
Method in brief: (§2)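 Visual injury ratings (0 = none, 100 = complete kill) taken 14 d after treatment, compared with untreated plants, feed probit-derived GR20/GR50/GR80. Application: overhead spray, 187 L/ha, highest rate and ½×-1/16× dilutions in acetone-DMSO-based aqueous spray mix with crop oil and surfactant, onto plants grown 7-21 d to first or second true leaf.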

[3] = system: CHEAL: lambsquarters (Chenopodium album); test: Post-Emergent Test I herbicidal activity; format: in vivo; conditions: Chenopodium album, post-emergence, 336 h, Table 3, 140 g ai/ha, read-out: Visual Growth Reduction (%)-14 Days after Application CHEAL
Method in brief: as §1

[4] = system: ABUTH: velvetleaf (Abutilon theophrasti); test: Post-Emergent Test I herbicidal activity; format: in vivo; conditions: Abutilon theophrasti, post-emergence, 336 h, Table 3, 140 g ai/ha, read-out: Visual Growth Reduction (%)-14 Days after Application ABUTH
Method in brief: as §1

[5] = system: EPHHL: wild poinsettia (Euphorbia heterophylla); test: Post-Emergent Test I herbicidal activity; format: in vivo; conditions: post-emergence, 336 h, Table 3, 140 g ai/ha, read-out: Visual Growth Reduction (%)-14 Days after Application EPHHL
Method in brief: as §1

[6] = system: ECHCG: barnyardgrass (Echinochloa crus-galli); test: Post-Emergent Test I herbicidal activity; format: in vivo; conditions: post-emergence, 336 h, Table 3, 140 g ai/ha, read-out: Visual Growth Reduction (%)-14 Days after Application ECHCG
Method in brief: as §2

[7] = system: CYPES: yellow nutsedge (Cyperus esculentus); test: Post-Emergent Test I herbicidal activity; format: in vivo; conditions: post-emergence, 336 h, Table 3, 140 g ai/ha, read-out: Visual Growth Reduction (%)-14 Days after Application CYPES
Method in brief: as §1

- melting point: 139 to 141 °C
SMILES: COC(=O)c1nc(-c2ccc(C(F)(F)F)c(F)c2F)c(F)c(N)c1OC [Compound 38]
- pest or weed control at 140 g/ha [1]: 75%
- pest or weed control at 140 g/ha [2]: 0%
- pest or weed control at 140 g/ha [3]: 90%
- pest or weed control at 140 g/ha [4]: 85%
- pest or weed control at 140 g/ha [5]: 100%
- pest or weed control at 140 g/ha [6]: 10%
- pest or weed control at 140 g/ha [7]: 50%
